Laboratory results: patent publication US20250002450A1, “CATIONIC STEROID COMPOUNDS, METHOD OF OBTAINING THEREOF, FORMULATIONS COMPRISING THEREOF AND THEIR USES” (UNIVERSIDADE DO PORTO, priority 2021, published 2025)
Converted amounts (≈) assume the structure as drawn. Read-outs that look alike come from different tables or passages of the source.

How the values were obtained:
[1] = tested on: C. albicans ATCC 10231; assay: Potassium ion efflux analysis; assay type: cell-based, Candida albicans; conditions: 5 min
Description: In an embodiment, the potassium ion (K^+) efflux analysis was performed as follows ([FIG. 9]). Leakage of potassium ions is a common response to membrane-disrupting agents; therefore, extracellular K^+ was quantified by flame atomic absorption spectrometry, after 5 min of exposure to compound 1 ([FIG. 10]). […] Efflux of potassium was determined by quantification of extracellular K^+ by flame atomic absorption spectrometry. Cell suspensions of C. albicans ATCC 10231 were prepared in the same manner as described for PI influx assay, and test conditions were also the same. After 5 min of exposure, cells were centrifuged for 10 min at 3500 rpm and the supernatants were filtrated using a cellulose acetate syringe filter with a 0.22 µm pore size. Samples were analyzed with a AAnalyst 200 Atomic Absorption Spectrometer (Perkin Elmer). Four independent assays were performed and the data are presented as percentage of control (untreated cells as […] of K^+).

[2] = tested on: Microsporum canis FF1; assay: Antifungal MIC/MLC (broth microdilution); assay type: cell-based
Source text: (§1) Twenty-three fungal strains were used in this study, including reference strains and clinical isolates of yeasts and filamentous fungi. Yeast strains included reference strains (ATCC—American Type Culture Collection and CECT—Colección Española de Cultivos Tipo) and clinical isolates: C. albicans ATCC 10231, Candida krusei ATCC 6258, C. albicans H37, C. albicans FF172, C. albicans FF176, C. albicans DSY294, C. albicans DSY296, C. glabrata DSY562, C. glabrata DSY565 and Cryptococcus neoformans CECT 1078. Filamentous fungi included Aspergillus fumigatus ATCC 240305, A. fumigatus C111, A. niger ATCC 16404, A. flavus F44, Fusarium solani FF125, F. oxysporum FF115, and dermatophytes Trichophyton rubrum FF5, T. mentagrophytes FF7, Microscoporum canis FF1 and Nannizzia gypsea FF3 (formerly Microsporum gypseum) and a species of genera Mucor, Lichetheimia and Scedosporium. Saprolegnia parasitica CBS 223.65, a reference strain of an oomycete fish pathogen, was also included. All microorganisms were kept in Sabouraud Dextrose Broth (SDB: BioMérieux, Marcy L'Etoile, France) plus glycerol (20%) at −80° C. The strains were kept in Sabouraud Dextrose Agar (SDA: BioMérieux, Marcy L'Etoile, France) slants and were sub-cultured in SDA before each test. S. parasitica was kept in Corn Meal Agar plates (CMA: BBL™ Corn Meal Agar, BD, Le Pont-de-Claix, France) and was sub-cultured in CMA before each experiment. C. albicans H37, was kindly provided by Cidilia Pina Vaz (CHSJ, Porto, Portugal) and C. albicans DSY294, C. albicans DSY296, C. glabrata DSY562, C. glabrata DSY565 were kindly provided by D. Sanglard (University of Lausanne, Switzerland). A stock solution of compound 1 (10 mg/mL), was prepared in dimethyl sulfoxide (DMSO 99%: Alfa Aesar, Kandel, Germany), kept at −20 degrees C., and freshly diluted in the appropriate culture media before each assay. In all experiments, in-test concentrations of DMSO were kept below 2%.
(§2) Antifungal activity was evaluated by determining the MIC of compound 1 by the broth microdilution method, according to CLSI guidelines (reference documents M27-A3 for yeasts and M38-A2 for filamentous fungi). Briefly, cell or spore suspensions were prepared in RPMI-1640 broth medium (Biochrom, Berlin, Germany) buffered with 3-(N-morpholino)propane sulfonic acid (MOPS) (Sigma-Aldrich, St. Louis, MO, USA) (henceforth referred to as RPMI) from fresh cultures of the different strains of fungi. For yeasts, the inoculum was adjusted to 0.5-2.5×10^3 CFU/mL. For filamentous fungi, the inoculum was adjusted to 1-3×10^3 CFU/mL for dermatophytes, and 0.4-5×10^4 CFU/mL for all other strains. […] Sterility and growth controls were included in each assay. The 96-well flat-bottomed untreated polystyrene microtiter plates which were incubated for 48 h at 35° C., with the exception of Lichetheimia spp. which was incubated at 25° C. for 48 h, and the dermatophyte strains, which incubated for 5-7 days at 25° C. […] The minimal lethal concentration (MLC) was determined by spreading 20 μL of culture collected from wells showing no visible growth on SDA plates. The MLC was determined as the lowest concentration showing complete growth inhibition after 48 h at 35 degrees C., 48 h at 25 degrees C.

[3] = tested on: Nannizzia gypsea FF3; assay: Antifungal MIC/MLC (broth microdilution); assay type: cell-based
Source text: as §1, §2

[4] = tested on: Candida albicans ATCC 10231; assay: Antifungal MIC/MLC (broth microdilution); assay type: cell-based
Source text: as §1, §2

[5] = tested on: Trichophyton rubrum FF5; assay: Antifungal MIC/MLC (broth microdilution); assay type: cell-based
Source text: as §1, §2

[6] = tested on: C. albicans ATCC 10231; assay: Mitochondrial dehydrogenases activity, MTT reduction assay; assay type: cell-based, Candida albicans; conditions: 2 h
Description: In order to determine whether compound 1 could also affect mitochondrial function, MTT reduction assay was performed. In this assay, tetrazolium salts are reduced to purple formazan derivatives by mitochondrial dehydrogenases, which can be measured spectrophotometrically and reported to mitochondrial activity and, indirectly, to cell viability. In this assay, cells were exposed to the test compounds for 2 h ([FIG. 11]). […] An increase in reactive oxygen species (ROS) has been linked to azoles activity: even though their primary mode of action is the inhibition of ergosterol synthesis, they also induce accumulation of ROS, which enhances their antifungal activity and translates into an increase in mitochondrial activity at inhibitory concentrations. […] Mitochondrial dehydrogenase activity was evaluated by the MTT assay, as previously described, with some modifications. Cell suspensions of C. albicans ATCC 10231 were prepared in the same manner as described above and, after overnight incubation at 36° C., were centrifuged at 3500 rpm for 15 min, the supernatant was removed, and the cells were carefully resuspended in 2 mL of RPMI. Test conditions and controls were the same as described above, but the time of exposure to the test compounds was 2 h. After the exposure time, cell suspensions were centrifuged at 3500 rpm for 10 min, the supernatant was removed, and 500 μL of MTT solution (0.5 mg/mL in RPMI, at 35° C.) (Thiazolyl Blue Tetrazolium Bromide, Alfa Aesar, Ward Hill, MA, USA) were added. After a 1 h incubation at 35° C., the insoluble formazan product resulting from the conversion of MTT by mitochondrial dehydrogenases of metabolically active cells was solubilized with 300 μL of DMSO. 100 μL of each sample were transferred in duplicate to a microtiter plate and the extent of the reduction of MTT to formazan was quantified by measuring the absorbance at 570 nm. Three independent assays were performed in duplicate, and the results are expressed as percentage of MTT reduction, using the untreated cells as control.

[7] = 128, 64, and 32 μg/mL (2×MIC, MIC, ½×MIC)

Row | Compound | levels of extracellular K+ vs untreated control [1, 7] | MIC [2] | MLC [2] | MIC [3] | MLC [3] | MIC [4] | MLC [4] | MIC [5] | MLC [5] | mitochondrial activity (MTT reduction) vs untreated control [6, 7] | levels of extracellular K+ vs untreated control ([1]; 8 μg/mL) | MIC ([2]; read-out: MIC) | MIC ([3]; read-out: MIC) | MIC ([4]; ATCC10231, read-out: MIC) | MIC ([5]; read-out: MIC) | mitochondrial activity (MTT reduction) vs untreated control ([6]; 8 μg/mL)
1 | C[C@H](CCC(=O)NCCN)[C@H]1CC[C@H]2[C@@H]3CC[C@@H]4C[C@H](O)CC[C@]4(C)[C@H]3C[C@H](O)[C@]12C [Compound 1, (R)—N-(2-aminoethyl)-4-((3R,5R,8R,9S,10S,12S,13R,14S,17R)-3,12-dihydroxy-10,13-dimethylhexadecahydro-1H-cyclopenta[a]phenanthren-17-yl) pentanamida] | significant levels of extracellular K | 64 µg/mL (≈ 147 µM) | 128 µg/mL (≈ 294 µM) | 32 µg/mL (≈ 73.6 µM) | 32 µg/mL (≈ 73.6 µM) | 64 µg/mL (≈ 147 µM) | 64 µg/mL (≈ 147 µM) | 32 µg/mL (≈ 73.6 µM) | 64 µg/mL (≈ 147 µM) | significant reduction of mitochondrial activity |  |  |  |  |  | 
2 | OC(Cn1cncn1)(Cn1cncn1)c1ccc(F)cc1F [Fluconazole, reference compound] |  |  |  |  |  |  |  |  |  |  | not | 32 µg/mL (≈ 104 µM) | 32 µg/mL (≈ 104 µM) | 2 µg/mL (≈ 6.53 µM) | 16 µg/mL (≈ 52.2 µM) | increase (non-significant)
